We go through ten compounds from patent US10017506B2, “ATX modulating agents” (BIOGEN MA INC., priority 2012, dated 2018).

The first assay has as its target T1, Human ATX protein (Homo sapiens, UniProt Q13822).
T1 construct: made in house
Put plainly: ATX biochemical FRET assay with FS-3 substrate. The conditions noted are these: FRET substrate FS-3 2 μM, ATX 1.0 μg/mL, 30 minutes pre-incubation, 2 hours at room temperature; read-out: IC50. The gist of the method:
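Enzyme at 1.0 μg/mL final, pre-incubated with compound (10-point, 3-fold series) for 30 min at RT in Tris pH 7.4 buffer with NaCl, KCl, CaCl2, MgCl2 and 1 mg/mL fatty-acid-free BSA. After FS-3 addition, 2 h at RT protected from light; fluorescence at 485/538 nm.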
By IC50 is commonly meant the concentration needed to halve the response being measured. For the compound `CC(N[C@H]1CC[C@H](C(=O)O)CC1)c1ccc2ccc(O[C@H]3CC[C@@H](C(F)(F)F)CC3)c(C(F)(F)F)c2c1` (stereo partly drawn) [Example 143, trans-4-((1-(8-(trifluoromethyl)-7-((cis-4-(trifluoromethyl)cyclohexyl)oxy)naphthalen-2-yl)ethyl)amino)cyclohexanecarboxylic acid], the IC50 was ≤ 500 nM.

Turning to `CCC(N[C@H]1CC[C@@H](C(=O)O)CC1)c1ccc2ccc(O[C@H]3CC[C@@H](CC)CC3)c(C(F)(F)F)c2c1` (stereo partly drawn) [Example 145, cis-4-((1-(7-((cis-4-ethylcyclohexyl)oxy)-8-(trifluoromethyl)naphthalen-2-yl)propyl)amino)cyclohexanecarboxylic acid], the IC50 was ≤ 100 nM.

Take `CCC(N[C@H]1CC[C@@H](C(=O)O)CC1)c1ccc2ccc(O[C@H]3CC[C@@H](C)CC3)c(C(F)(F)F)c2c1` (stereo partly drawn) [Example 146, cis-4-((1-(7-((cis-4-methylcyclohexyl)oxy)-8-(trifluoromethyl)naphthalen-2-yl)propyl)amino)cyclohexanecarboxylic acid]: the IC50 is ≤ 250 nM. Same read-out and setting: with `CCC(N[C@H]1CC[C@@H](C(=O)O)CC1)c1ccc2ccc(O[C@H]3CC[C@@H](C(F)(F)F)CC3)c(C(F)(F)F)c2c1` (stereo partly drawn) [Example 147, cis-4-((1-(8-(trifluoromethyl)-7-((cis-4-(trifluoromethyl)cyclohexyl)oxy)naphthalen-2-yl)propyl)amino)cyclohexanecarboxylic acid] the figure was ≤ 100 nM; with `CC(C)(C)[C@H]1CC[C@H](Nc2cc3cc(C(=O)NC4CCCC(C(=O)O)C4)ccc3cn2)CC1` (stereo partly drawn) [Example 150, 3-(3-((trans-4-(tert-butyl)cyclohexyl)amino)isoquinoline-6-carboxamido)cyclohexanecarboxylic acid], ≤ 250 nM; with `CC(C)(C)[C@H]1CC[C@H](Nc2cc3cc(C(=O)NC45CCC(C(=O)O)(CC4)CC5)ccc3cn2)CC1` [Example 152, 4-(3-((trans-4-(tert-butyl)cyclohexyl)amino)isoquinoline-6-carboxamido)bicyclo[2.2.2]octane-1-carboxylic acid], ≤ 100 nM. The same measure, in the same setting: with `CC(C)(C)[C@H]1CC[C@H](Nc2cc3cc(C(=O)N[C@H]4CC[C@@H](C(=O)O)CC4)ccc3cn2)CC1` [Example 154, cis-4-(3-((trans-4-(tert-butyl)cyclohexyl)amino)isoquinoline-6-carboxamido)cyclohexane carboxylic acid] the figure was ≤ 100 nM.

As to `CC(C)(C)[C@H]1CC[C@H](Nc2cc3cc(C(=O)N[C@H]4CC[C@H](C(=O)O)CC4)ccc3cn2)CC1` [Example 155, trans-4-(3-((trans-4-(tert-butyl)cyclohexyl)amino)isoquinoline-6-carboxamido)cyclohexanecarboxylic acid], the IC50 is ≤ 100 nM.

Staying with this assay, now noted: IC50, FRET substrate FS-3 2 μM, ATX 1.0 μg/mL, 30 minutes pre-incubation, 2 hours at room temperature.
In the case of `CC[C@H]1CC[C@@H](Oc2ccc3ccc([C@H](C)N4C5CCC4CC(C(=O)O)C5)cc3c2C(F)(F)F)CC1` (stereo partly drawn) [Example 144a, 8-((S)-1-(7-((cis-4-ethylcyclohexyl)oxy)-8-(trifluoromethyl)naphthalen-2-yl)ethyl)-8-azabicyclo[3.2.1]octane-3-carboxylic acid], the IC50 is ≤ 500 nM.

With `CC[C@H]1CC[C@@H](Oc2ccc3ccc([C@@H](C)N4C5CCC4CC(C(=O)O)C5)cc3c2C(F)(F)F)CC1` (stereo partly drawn) [Example 144b, 8-((R)-1-(7-((cis-4-ethylcyclohexyl)oxy)-8-(trifluoromethyl)naphthalen-2-yl)ethyl)-8-azabicyclo[3.2.1]octane-3-carboxylic acid], the IC50 is ≤ 100 nM.
